Experimental data taken from patent publication US5977088A (priority 1995, dated 1999).
Entries after “also recorded” stand apart in the source; their conditions may differ. Where a name gives a salt, the structure may show the parent alone. Read-outs that look alike come from different tables or passages of the source.

Tests used:
[1] = Topical treatment of back pain in a patient with kyphosis; settings: applied to back in hyaluronic acid
[2] = human, in vivo
[3] = Intravenous injection, radioactivity in liver; assay type: in vivo, Fisher 344 rat; set-up: unit not given beside the values; settings: mean ± S.E.
[4] = system: Fisher Bladder Carcinoma tumor tissue; assay: Intratumour injection study, radioactivity in tumor tissue; assay type: in vivo, Fisher 344 rat; settings: intratumor injection; 1 h, 6 h
Experimental: Animal: Fisher 344 rat, male 200-250g b. […] These drugs were administrated by intratumor injection. […] At the same time, injection into normal skin (on the left frank) was carried out similarly.

[5] = system: Fisher Bladder Carcinoma tumor tissue; assay: Intravenous injection, radioactivity in tumor tissue; settings: mean ± S.E., FIG. 5 plots CPM
Experimental: (§1) Tumor (2 mm viable tumor fragment) was transplanted subcutaneously on the right frank by trocar
(§2) Treatment was started when tumor size is about 1.5 cm.(2 weeks after implantation.) . . . tumor weight: 1.0+0.3 g
(§3) The drug was administered Intravenously (through the penile vein)
(§4) Group A: 5-FU 20 mg/kg (3H-5-FU30 μCi)+saline
(§5) Tumor was surgically removed (and blood was collected) at *predeterminated time after drug administration. Tumor weight was measured (and blood was centrifuged to obtain a plasma sample.)
(§6) *15 min, 60 min, 3 hr, 4 hrs, . . . after drug administration . . . .
(§7) Radioactivity level in tumor tissue was counted, using a liquid scintillation counter.

[6] = Intratumour injection study, radioactivity in normal skin; assay type: in vivo, Fisher 344 rat; settings: injection into normal skin; 1 h, 6 h
Experimental: Animal: Fisher 344 rat, male 200-250g At the same time, injection into normal skin (left frank) was carried out similarly. […] At the same time, injection into normal skin (on the left frank) was carried out similarly.

[7] = Chronic conditions - evaluations of patients treated with […] hyaluronic acid with 3% diclofenac acid (HD); assay type: in vivo, human (patients); settings: single patient
[8] = Toxicity of indomethacin solubilized in n-methyl glucamine with hyaluronic acid in animals; assay type: in vivo
Experimental: As a major amount of soluble indomethacin may be incorporated into the formulation, or composition, the indomethacin may be solubilized using n-methyl glucamine at a dilution of 5 mg/ml of n-methyl glucamine (NMG). This substance is then passed through a […] Milipore filter to produce sterility. […] The solution of indomethacin and NMG may be mixed with, for example, "LifeCore™" hyaluronic acid in dosage amounts discussed above. This produces an appropriate mixture and can be administered safely.

psoriasis = assay: Topical treatment of a patient with psoriasis; assay type: in vivo, human (patient); settings: carried in hyaluronic acid
Experimental: In another patient, a drug (methotrexate) was carried in hyaluronic acid and applied topically to a patient with psoriasis.

[9] = system: Fisher Bladder Carcinoma tumor tissue; settings: rat, in vivo, iv
Experimental: as §1, §2, §3, §4, §5, §6, §7

[10] = monkey, in vivo; cited from earlier work

**Q.** What does the source list for O=C(c1ccccc1)c1ccc2n1CCC2C(=O)O (racemic) [Toradol™, (+/-) tromethamine salt of ketorolac]?
**A.** Back pain [1]: the back pain eased and disappeared for some time; Side effects [2]: there were no side effects

**Q.** With O=c1[nH]cc(F)c(=O)[nH]1 [Formulation 5-FU, 5-Fluoracil] as the compound, how does the Radioactivity in liver ([3]; 15 min after i.v.) read?
**A.** The Radioactivity in liver was 18680 ± 625.

**Q.** What about the Radioactivity in liver ([3]; 60 min after i.v.) of the same compound?
**A.** The Radioactivity in liver was 5451 ± 841.

**Q.** And the Radioactivity in liver ([3]; 3 hrs after i.v.)?
**A.** Its Radioactivity in liver is 2230 ± 449.

**Q.** And the Radioactivity in liver ([3]; 5 hrs after i.v.)?
**A.** The Radioactivity in liver was 1129 ± 70.

**Q.** And the “Radioactivity retention in tumor tissue (in words)” value [4]?
**A.** Its value is “radioactivity immediately disappeared from the tumor or the normal tissue”.

**Q.** And the Radioactivity in tumor ([5]; 15 min after i.v.)?
**A.** Its Radioactivity in tumor is 2810 ± 165.

**Q.** What about the Radioactivity in tumor ([5]; 60 min after i.v.) of the same compound?
**A.** The Radioactivity in tumor was 1751 ± 149.

**Q.** And the Radioactivity in tumor ([5]; 3 hrs after i.v.)?
**A.** The Radioactivity in tumor was 1493 ± 227.

**Q.** What about the Radioactivity in tumor ([5]; 5 hrs after i.v.) of the same compound?
**A.** Its Radioactivity in tumor is 853 ± 129.

**Q.** What about the “Radioactivity clearance in normal tissue (skin) (in words)” value [6] of the same compound?
**A.** Its value is “radioactivity immediately disappeared from the tumor or the normal tissue”.

**Q.** For O=C(OCC(O)CO)c1ccccc1Nc1ccnc2c(C(F)(F)F)cccc12 (centres unmarked) [Idarac], which “Comments on outcome (in words)” value [7] is on record?
**A.** Its value is “poor response”.

**Q.** What does the source list for COc1ccc2c(c1)c(CC(=O)O)c(C)n2C(=O)c1ccc(Cl)cc1 [indomethacin]?
**A.** Side effects [1]: some side effects; Multiple of the therapeutic dose that is non-toxic in animals [8]: 16 fold

**Q.** Which Response of psoriasis (psoriasis) does the source give for CN(Cc1cnc2nc(N)nc(N)c2n1)c1ccc(C(=O)N[C@@H](CCC(=O)O)C(=O)O)cc1 [methotrexate] here?
**A.** Its Response of psoriasis is “the psoriasis cleared”.

**Q.** With COc1ccc2cc([C@H](C)C(=O)O)ccc2c1 [naproxen] as the compound, how does the Side effects [1] read?
**A.** The Side effects was “some side effects”.

**Q.** Which “Comments on outcome (in words)” value [7] does the source give for CN1C(C(=O)Nc2ccccn2)=C(O)c2ccccc2S1(=O)=O [piroxicam] here?
**A.** The value was “nega-; also recorded: poor relief”.

**Q.** With hyaluronic acid as the compound, how does the “Radioactivity in tumor tissue (in words)” value [9] read?
**A.** The value was “can enhance 5-FU uptake in tumor tissue”.

**Q.** With sodium hyaluronate as the compound, how does the “Cellular infiltration of the vitreous and anterior chamber, flare, haze, pathological changes” value [10] read?
**A.** The value was “no significant cellular infiltration of the vitreous and anterior chamber, no flare in the aqueous humour, no haze or flare in the vitreous, and no pathological changes”.
